Laboratory results as given in the NIST ThermoML archive (doi:10.1021/je900709n).
± gives the expanded uncertainty stated by the source.

Key:
[1] = φn = volume fraction of the nth substance listed; conditions: 101 kPa, Liquid; for viscosity: Capillary tube (Ostwald / Ubbelohde) method; for mass density: Pycnometric method
[2] = Liquid

SMILES: C1COCO1 [1,3-dioxolane] + O
- viscosity ([1]; 298.15 K, φ2 = 0.3): 0.9716 ± 0.19 mPa·s
- viscosity ([1]; 298.15 K, φ2 = 0.6): 1.357 ± 0.27 mPa·s
- viscosity ([1]; 298.15 K, φ2 = 0.9): 0.9415 ± 0.19 mPa·s
- mass density ([1]; 298.15 K, φ2 = 0.3): 1049.2 ± 6 kg/m3
- mass density ([1]; 298.15 K, φ2 = 0.6): 1039.1 ± 6 kg/m3
- mass density ([1]; 298.15 K, φ2 = 0.9): 1009.2 ± 6 kg/m3
- viscosity ([1]; 308.15 K, φ2 = 0.3): 0.9314 ± 0.19 mPa·s
- viscosity ([1]; 308.15 K, φ2 = 0.6): 1.133 ± 0.23 mPa·s
- viscosity ([1]; 308.15 K, φ2 = 0.9): 0.822 ± 0.16 mPa·s
- mass density ([1]; 308.15 K, φ2 = 0.3): 1041.1 ± 6 kg/m3
- mass density ([1]; 308.15 K, φ2 = 0.6): 1030.7 ± 6 kg/m3
- mass density ([1]; 308.15 K, φ2 = 0.9): 1003.3 ± 6 kg/m3

SMILES: C1COCO1 [1,3-dioxolane]
- viscosity ([2]; 298.15 K, 101.33 kPa, Capillary tube (Ostwald / Ubbelohde) method): 0.575 ± 0.012 mPa·s
- mass density ([2]; 298.15 K, 101.33 kPa, Pycnometric method): 1058.6 ± 1.2 kg/m3
- Normal boiling temperature ([2]; Distillation): 75 ± 1 °C
